In test [1] the test system is Galium aparine. As to the kind of experiment: Field test, triasulfuron plus adjuvants against weeds in winter wheat. Type of test: in vivo. The note with it: triasulfuron 25 g.ha^−1, adjuvant 0.1% by weight or none; visual, percentage of plants affected, 5 weeks after treatment. As for the experimental part:
(§1) Field tests were carried out on test plots using a completely randomised block design with 4 replicates. […] In such a situation, it is an important benefit if the herbicide can limit the growth of the weeds (inhibition) e.g. by use of an adjuvant. In this Example, the effect of adjuvants on the activity of triasulfuron against G aparine and V hederifolia growing naturally as weeds in winter wheat was examined. […] G aparine and V hederifolia were used in evaluating herbicidal activity because of their regular distribution. […] The results of the runs using no adjuvant and those for combined adjuvants and herbicide are set out in Table 1 below.

Test [2] relates to Veronica hederifolia. The description is as above. Conditions: triasulfuron 25 g.ha^−1, adjuvant 0.1% by weight or none; visual, percentage of plants affected, 5 weeks after treatment. Type of test: in vivo. As for the experimental part:
as §1

Test [3] has as its system Veronica hederifolia. The note with it: background statement, no adjuvant; cited from earlier work.
Test [4] has as its system Galium aparine. The note with it: background statement, no adjuvant; cited from earlier work.
In a further test the test system is Veronica hederffolia. As to the kind of experiment: Field test, Cameo (tribenuron-methyl) plus adjuvants in winter wheat, growth reduction. Type of test: in vivo. Conditions: spray 0.015% tribenuron-methyl, 0.1% adjuvant in tank mix or none. As for the experimental part: Field tests were carried out on test plots using a completely randomised block design with 4 replicates. The spray volume used was 300 I.ha^−1.
The spray solution contained 0.015% by weight tribenuronethyl and 0.1% adjuvant added to the tank mix. The effectiveness of the herbicides was assessed visually by the % growth reduction of the weeds as compared with untreated weeds.

Regarding `COc1nc(C)nc(NC(=O)NS(=O)(=O)c2ccccc2OCCCl)n1` [triasulfuron], in the test with Galium aparine [1], the “Chlorosis, Galium aparine (5 weeks)” value was 30%; the “Inhibition, Galium aparine (5 weeks)” value amounted to 50%; the “Necrosis, Galium aparine (5 weeks)” value stood at 10%. In the test with Veronica hederifolia [2], the “Chlorosis, Veronica hederifolia (5 weeks)” value is given as 10%; the “Inhibition, Veronica hederifolia (5 weeks)” value stood at 40%; the “Necrosis, Veronica hederifolia (5 weeks)” value is 10%. Moreover, in the test with Veronica hederifolia [3], the “known activity against ivy-leaved speedwell (Veronica hederifolia)” value is reported as “limited activity”. Moreover, in the test on Galium aparine [4], the “known activity against cleavers (Galium aparine)” value is “limited activity”.
Consider nonyl phenol 8-ethoxylate [NP8], for which, in the test with Galium aparine [1], the “Chlorosis, Galium aparine (5 weeks)” value was 30%; the “Inhibition, Galium aparine (5 weeks)” value was 40%; the “Necrosis, Galium aparine (5 weeks)” value is 10%. Moreover, in the test with Veronica hederifolia [2], the “Chlorosis, Veronica hederifolia (5 weeks)” value worked out at 40%; the “Inhibition, Veronica hederifolia (5 weeks)” value stood at 60%; the “Necrosis, Veronica hederifolia (5 weeks)” value amounted to 30%. In addition, in the test on Veronica hederffolia, the “Inhibition (%), growth reduction of the weeds as compared with untreated weeds” value turned out to be 33%.

(Values after patent US6413908B1, “Agrochemical surfactant compositions” (Imperial Chemical Industries plc, priority 1997, dated 2002).)
